Measured values published in ChEMBL document CHEMBL1287762, “Synthesis and biological evaluation of 3-[4-(amino/methylsulfonyl)phenyl]methylene-indolin-2-one derivatives as novel COX-1/2 and 5-LOX inhibitors” (Bioorg Med Chem Lett, 2010).
Structures can show the parent of a compound that is named as a salt.

Columns and labels:
[1] = system: Rattus norvegicus; assay: Antiinflammatory activity in Wistar rat assessed as inhibition of carrageenan-induced paw edema at 10.38 mg/kg, po administered 1 hr before carrageenan challenge measured at 3 hrs by plethysmometer; assay type: functional
[2] = system: Rattus norvegicus; assay: Ulcerogenic effect in Wistar rat assessed as gastric ulcer area at 10.38 mg/kg, po administered for 7 days by microscopy; assay type: toxicity, organism-based, Stomach; parameters: dose 10.38 mg/kg, route oral; settings: in vivo, 168 h
[3] = system: Rattus norvegicus; assay: Antiinflammatory activity in Wistar rat assessed as inhibition of carrageenan-induced paw edema at 10.38 mg/kg, po administered 1 hr before carrageenan challenge measured at 1 hr by plethysmometer; assay type: functional
[4] = system: Mus musculus; assay: Analgesic activity in BALB/c mouse assessed as inhibition of acetic acid-induced writhing response for 15 mins at 20.76 mg/kg, po; assay type: functional; settings: 0.25 h
[5] = target: T1, Prostaglandin G/H synthase 1 (Oryctolagus cuniculus, UniProt O97554); assay: Inhibition of COX-1 in rabbit peripheral venous blood assessed as formation of 12-hydroxyheptadecatrienoic acid after 24 hrs by HPLC in presence of calcium ionophore A23187
T1 sequence (O97554 whole entry): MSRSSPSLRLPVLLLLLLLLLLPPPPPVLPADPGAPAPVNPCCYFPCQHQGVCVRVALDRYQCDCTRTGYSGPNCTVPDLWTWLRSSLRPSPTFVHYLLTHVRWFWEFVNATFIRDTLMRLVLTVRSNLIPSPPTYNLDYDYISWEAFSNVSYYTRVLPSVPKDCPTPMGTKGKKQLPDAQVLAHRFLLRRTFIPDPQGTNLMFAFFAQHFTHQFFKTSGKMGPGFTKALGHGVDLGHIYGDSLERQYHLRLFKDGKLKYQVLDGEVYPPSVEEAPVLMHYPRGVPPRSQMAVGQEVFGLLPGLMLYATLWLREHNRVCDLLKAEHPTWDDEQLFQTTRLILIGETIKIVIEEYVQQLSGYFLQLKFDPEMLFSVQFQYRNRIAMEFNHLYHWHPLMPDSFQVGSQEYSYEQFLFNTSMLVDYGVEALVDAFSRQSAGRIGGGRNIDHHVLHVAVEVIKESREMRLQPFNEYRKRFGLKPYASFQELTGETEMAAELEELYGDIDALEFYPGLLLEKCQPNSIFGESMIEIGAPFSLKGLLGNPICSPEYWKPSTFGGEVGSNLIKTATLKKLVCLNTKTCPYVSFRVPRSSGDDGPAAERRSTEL

[6] = Inhibition of 5-LOX in rabbit peripheral venous blood assessed as formation of […] after 30 mins by HPLC; assay type: tissue-based, Oryctolagus cuniculus
[7] = system: Rattus norvegicus; assay: Antiinflammatory activity in Wistar rat assessed as inhibition of carrageenan-induced paw edema at 10.38 mg/kg, po administered 1 hr before carrageenan challenge measured at 6 hrs by plethysmometer; assay type: functional
[8] = system: Rattus norvegicus; assay: Antiinflammatory activity in Wistar rat assessed as inhibition of carrageenan-induced paw edema at 10.12 mg/kg, po administered 1 hr before carrageenan challenge measured at 3 hrs by plethysmometer; assay type: functional
[9] = system: Rattus norvegicus; assay: Ulcerogenic effect in Wistar rat assessed as gastric ulcer area at 10.12 mg/kg, po administered for 7 days by microscopy; assay type: toxicity, organism-based, Stomach; parameters: dose 10.12 mg/kg, route oral; settings: in vivo, 168 h
[10] = system: Mus musculus; assay: Analgesic activity in BALB/c mouse assessed as inhibition of acetic acid-induced writhing response for 15 mins at 20.24 mg/kg, po; assay type: functional; settings: 0.25 h
[11] = system: Rattus norvegicus; assay: Antiinflammatory activity in Wistar rat assessed as inhibition of carrageenan-induced paw edema at 10.12 mg/kg, po administered 1 hr before carrageenan challenge measured at 6 hrs by plethysmometer; assay type: functional
[12] = species: Oryctolagus cuniculus; assay: Selectivity ratio, IC50 for COX-1in rabbit peripheral venous blood to IC50 for COX-2 in rabbit peripheral venous blood; assay type: tissue-based
[13] = target: T2, Prostaglandin G/H synthase 2 (Oryctolagus cuniculus, UniProt O02768); assay: Inhibition of COX-2 in rabbit peripheral venous blood assessed as formation of 12-hydroxyheptadecatrienoic acid after 24 hrs in by HPLC presence of calcium ionophore […] and lipopolysaccharide; assay type: tissue-based
T2 sequence (O02768 whole entry): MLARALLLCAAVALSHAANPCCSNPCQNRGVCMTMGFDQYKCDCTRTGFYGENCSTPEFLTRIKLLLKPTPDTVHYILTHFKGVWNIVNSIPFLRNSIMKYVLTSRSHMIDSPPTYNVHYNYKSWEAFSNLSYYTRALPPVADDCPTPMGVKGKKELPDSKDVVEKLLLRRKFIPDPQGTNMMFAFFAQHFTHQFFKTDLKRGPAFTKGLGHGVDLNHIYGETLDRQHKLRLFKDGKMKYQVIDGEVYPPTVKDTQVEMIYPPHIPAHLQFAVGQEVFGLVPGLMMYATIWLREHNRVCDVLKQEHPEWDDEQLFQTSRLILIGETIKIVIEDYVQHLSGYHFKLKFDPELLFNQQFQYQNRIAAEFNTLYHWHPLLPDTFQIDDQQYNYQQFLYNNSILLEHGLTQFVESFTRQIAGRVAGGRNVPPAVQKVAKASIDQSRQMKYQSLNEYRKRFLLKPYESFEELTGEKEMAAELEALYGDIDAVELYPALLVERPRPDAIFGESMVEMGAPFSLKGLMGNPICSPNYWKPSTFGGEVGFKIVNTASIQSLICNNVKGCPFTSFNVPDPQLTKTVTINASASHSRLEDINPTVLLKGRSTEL

[14] = system: Rattus norvegicus; assay: Antiinflammatory activity in Wistar rat assessed as inhibition of carrageenan-induced paw edema at 10.12 mg/kg, po administered 1 hr before carrageenan challenge measured at 1 hr by plethysmometer; assay type: functional
[15] = system: Mus musculus; assay: Analgesic activity in BALB/c mouse assessed as inhibition of acetic acid-induced writhing response for 15 mins at 20.94 mg/kg, po; assay type: functional; settings: 0.25 h
[16] = system: Rattus norvegicus; assay: Antiinflammatory activity in Wistar rat assessed as inhibition of carrageenan-induced paw edema at 10.47 mg/kg, po administered 1 hr before carrageenan challenge measured at 1 hr by plethysmometer; assay type: functional
[17] = system: Rattus norvegicus; assay: Antiinflammatory activity in Wistar rat assessed as inhibition of carrageenan-induced paw edema at 10.47 mg/kg, po administered 1 hr before carrageenan challenge measured at 6 hrs by plethysmometer; assay type: functional
[18] = system: Rattus norvegicus; assay: Antiinflammatory activity in Wistar rat assessed as inhibition of carrageenan-induced paw edema at 10.47 mg/kg, po administered 1 hr before carrageenan challenge measured at 3 hrs by plethysmometer; assay type: functional
[19] = system: Rattus norvegicus; assay: Ulcerogenic effect in Wistar rat assessed as gastric ulcer area at 10.47 mg/kg, po administered for 7 days by microscopy; assay type: toxicity, organism-based, Stomach; parameters: dose 10.47 mg/kg, route oral; settings: in vivo, 168 h

NC(=O)N1C(=O)/C(=C(\O)c2cccs2)c2cc(Cl)ccc21 [TENIDAP]
inhibition in vivo at 10.38 mg/kg [1]: 38.9% | Activity [2]: 3.75 mm2 | inhibition in vivo at 10.38 mg/kg [3]: 23.8% | inhibition in vivo at 20.76 mg/kg [4]: 70.4% | IC50 [5]: 2.56 µM | IC50 [6]: 36.7 µM | inhibition in vivo at 10.38 mg/kg [7]: 19.6%

CS(=O)(=O)c1ccc(/C=C2/C(=O)Nc3cc(Cl)ccc32)cc1
inhibition in vivo at 10.12 mg/kg [8]: 23.8% | Activity [9]: 0.75 mm2 | inhibition in vivo at 20.24 mg/kg [10]: 55.2% | inhibition in vivo at 10.12 mg/kg [11]: 21.6% | Ratio IC50 [12]: 0.1 | IC50 [13]: 2.39 µM | inhibition in vivo at 10.12 mg/kg [14]: 19.4% | IC50 [5]: 0.24 µM | IC50 [6]: 2.99 µM

CC(C)(C)c1cc(/C=C2\SC(N)=NC2=O)cc(C(C)(C)C)c1O [DARBUFELONE MESYLATE]
IC50 [13]: 0.11 µM | IC50 [5]: 37.6 µM

CS(=O)(=O)c1ccc(/C=C2/C(=O)Nc3ccc(Cl)cc32)cc1
inhibition in vivo at 10.12 mg/kg [8]: 15.7% | Activity [9]: 0.88 mm2 | inhibition in vivo at 20.24 mg/kg [10]: 63.3% | inhibition in vivo at 10.12 mg/kg [11]: 41.7% | IC50 [13]: 3.82 µM | inhibition in vivo at 10.12 mg/kg [14]: 14.3% | IC50 [5]: > 50 µM | IC50 [6]: > 50 µM

NS(=O)(=O)c1ccc(/C=C2/C(=O)Nc3ccc(Br)cc32)cc1
Ratio IC50 [12]: 1.18 | IC50 [13]: 20.9 µM | IC50 [5]: 24.6 µM | IC50 [6]: 10.6 µM

NS(=O)(=O)c1ccc(/C=C2/C(=O)Nc3ccccc32)cc1
IC50 [13]: > 50 µM | IC50 [5]: > 50 µM | IC50 [6]: > 50 µM

Cc1ccc2c(c1)/C(=C\c1ccc(S(N)(=O)=O)cc1)C(=O)N2
IC50 [13]: > 50 µM | IC50 [5]: > 50 µM | IC50 [6]: > 50 µM

NS(=O)(=O)c1ccc(/C=C2/C(=O)Nc3ccc([N+](=O)[O-])cc32)cc1
inhibition in vivo at 20.94 mg/kg [15]: 40.8% | inhibition in vivo at 10.47 mg/kg [16]: 9.52% | inhibition in vivo at 10.47 mg/kg [17]: 13.7% | Ratio IC50 [12]: 0.04 | IC50 [13]: 3.72 µM | inhibition in vivo at 10.47 mg/kg [18]: 22.2% | Activity [19]: 0.12 mm2 | IC50 [5]: 0.14 µM | IC50 [6]: 3.06 µM
